The values that follow come from ChEMBL document CHEMBL5257097, “An Isomer of Galidesivir That Potently Inhibits Influenza Viruses and Members of the Bunyavirales Order” (ACS Med Chem Lett, 2023).

Broadly, the EC50 is the concentration needed to bring the measured effect to its halfway point. As a reminder, the EC90 is the point of the concentration-response curve where the effect stands at 90%. The CC50 is the concentration at which the toxic effect on the cells reaches its halfway point.

The nature of data set [1]: Selectivity index, ratio of CC50 for cytotoxicity against African green monkey Vero cells infected with DENV-2 assessed as reduction in cell viability by neutral red analysis to EC50 for antiviral activity against DENV-2 infected in human Huh-7 cells assessed as reduction in virus-induced cytopathic effect by neutral red analysis. Format: toxicity, cell-based. The settings on record: read-out: Ratio CC50/EC50.

Data set [2] in a line: Selectivity index, ratio of CC50 for cytotoxicity against African green monkey Vero cells infected with DENV-2 assessed as reduction in cell viability by visual analysis to EC50 for antiviral activity against DENV-2 infected in human Huh-7 cells assessed as reduction in virus-induced cytopathic effect by visual analysis. In kind it is toxicity, cell-based. The settings on record: read-out: Ratio CC50/EC50. Background: Protection from cytopathic effect is a common read-out in antiviral testing.

Data set [3] deals with dengue virus type 2. Kind of data set: Antiviral activity against DENV-2 infected in African green monkey Vero cells assessed as reduction in virus-induced cytopathic effect measured after 15 to 30 mins by visual analysis. Format: functional, organism-based.
Data set [4] has as its system Influenza B virus. Kind of data set: Antiviral activity against Influenza B virus infected in dog MDCK cells assessed as reduction in viral cytopathic effect. Format: functional, organism-based.
Data set [5] relates to Mammarenavirus choriomeningitidis. Briefly: Antiviral activity against Lymphocytic choriomeningitis virus infected in African green monkey Vero E6 cells assessed as reduction in viral yield measured for 3 days. Format: functional. The settings on record: Vero C1008, 72 h, time 3 day.
Data set [6] deals with Influenza A virus. Briefly: Antiviral activity against Influenza A virus H7N9 infected in dog MDCK cells assessed as inhibition of viral replication measured after 15 to 30 mins by visual analysis. Format: functional, organism-based.
A short description of data set [7]: Cytotoxicity against dog MDCK cells infected with Influenza B virus assessed as reduction in cell viability by visual analysis. In kind it is toxicity, cell-based, Canis lupus familiaris.
Data set [8] in a line: Cytotoxicity against dog MDCK cells infected with Influenza B virus assessed as reduction in cell viability by neutral red dye based analysis. In kind it is toxicity, Canis lupus familiaris.
In data set [9] the test system is Tacaribe virus. Kind of data set: Antiviral activity against Tacaribe virus infected in African green monkey Vero cells assessed as inhibition of viral replication by visual analysis. Format: functional, organism-based. The conditions noted are these: Mammarenavirus tacaribeense.
Data set [10] concerns La Crosse virus. Kind of data set: Antiviral activity against La Crosse virus infected in African green monkey Vero E6 cells assessed as inhibition of viral replication by neutral red dye based analysis. In kind it is functional, organism-based. The conditions noted are these: Vero C1008.
The nature of data set [11]: Cytotoxicity against dog MDCK cells infected with Influenza A virus H7N9 assessed as reduction in cell viability by neutral red dye based analysis. Format: toxicity, Canis lupus familiaris.
Data set [12] can be described thus: Selectivity index, ratio of CC50 for cytotoxicity against African green monkey Vero E6 cells infected with Oropouche virus assessed as reduction in cell viability by neutral red dye based analysis to EC50 for antiviral activity against Oropouche virus infected in African green monkey Vero E6 cells assessed as reduction in viral replication by neutral red dye based analysis. The settings on record: read-out: Ratio CC50/EC50. Format: toxicity, Vero C1008.

Data set [13] is described as follows: Cytotoxicity against African green monkey Vero 76 cells infected with La Crosse virus assessed as reduction in cell viability by neutral red dye based analysis. In kind it is toxicity. The conditions noted are these: chlorocebus sabaeus.
Data set [14] is described as follows: Cytotoxicity against African green monkey Vero E6 cells infected with Rift Valley fever virus assessed as reduction in cell viability. Format: toxicity, cell-based, Vero C1008. The conditions noted are these: chlorocebus sabaeus.
Data set [15] can be described thus: Cytotoxicity against African green monkey Vero E6 cells infected with Oropouche virus assessed as reduction in cell viability by visual analysis. In kind it is toxicity, cell-based, Vero C1008. The settings on record: chlorocebus sabaeus.
For data set [16], the system named is Junin virus. Kind of data set: Antiviral activity against Junin virus infected in African green monkey Vero E6 cells assessed as inhibition of viral replication by neutral red dye based analysis. In kind it is functional, organism-based. The settings on record: Mammarenavirus juninense, Vero C1008.
Data set [17] concerns Influenza B virus. Briefly: Antiviral activity against Influenza B virus infected in dog MDCK cells assessed as reduction in virus yield measured after 3 days by visual analysis. In kind it is functional. The conditions noted are these: 72 h, time 3 day.
Data set [18] is described as follows: Selectivity index, ratio of CC50 for cytotoxicity against dog MDCK cells infected with Influenza A virus H1N1 assessed as reduction in cell viability by visual analysis to EC90 for antiviral activity against Influenza A virus H1N1 infected in dog MDCK cells assessed as reduction in viral yield by visual analysis. In kind it is toxicity, cell-based.
A short description of data set [19]: Cytotoxicity against African green monkey Vero E6 cells infected with Severe fever with thrombocytopenia syndrome virus assessed as reduction in cell viability. The settings on record: chlorocebus sabaeus. In kind it is toxicity, cell-based, Vero C1008.
Data set [20] is described as follows: Cytotoxicity against African green monkey Vero E6 cells infected with Heartland virus assessed as reduction in cell viability. Format: toxicity, cell-based, Vero C1008. The conditions noted are these: chlorocebus sabaeus.
The nature of data set [21]: Selectivity index, ratio of CC50 for cytotoxicity against African green monkey Vero E6 cells infected with Heartland virus assessed as reduction in cell viability to EC90 for antiviral activity against Heartland virus infected in African green monkey Vero E6 cells assessed as reduction in viral yield. In kind it is toxicity, cell-based, Vero C1008.
In data set [22] the test system is Heartland virus. Kind of data set: Antiviral activity against Heartland virus infected in African green monkey Vero E6 cells assessed as reduction in viral yield measured for 3 days. The settings on record: Vero C1008, 72 h, time 3 day. Format: functional.
Data set [23] in a line: Selectivity index, ratio of CC50 for cytotoxicity against African green monkey Vero cells infected with JUNV assessed as reduction in cell viability by visual analysis to EC50 for antiviral activity against JUNV infected in African green monkey Vero cells assessed as reduction in viral replication by visual analysis. In kind it is toxicity, cell-based. The settings on record: read-out: Ratio CC50/EC50.

The nature of data set [24]: Cytotoxicity against African green monkey Vero 76 cells infected with Punta Toro virus assessed as reduction in cell viability by visual analysis. Format: toxicity, cell-based. The settings on record: chlorocebus sabaeus.
Data set [25] relates to Influenza A virus. Kind of data set: Antiviral activity against Influenza A virus H3N2 infected in dog MDCK cells assessed as inhibition of viral replication measured after 15 to 30 mins by neutral red dye based analysis. In kind it is functional, organism-based.
Data set [26] is described as follows: Selectivity index, ratio of CC50 for cytotoxicity against African green monkey Vero 76 cells infected with MERS-CoV assessed as reduction in cell viability by neutral red dye based analysis to EC50 for antiviral activity against MERS-CoV infected in African green monkey Vero 76 cells assessed as reduction in virus-induced cytopathic effect by neutral red dye based analysis. Format: toxicity. The conditions noted are these: read-out: Ratio CC50/EC50.

Data set [27] is described as follows: Selectivity index, ratio of CC50 for cytotoxicity against African green monkey Vero E6 cells infected with Oropouche virus assessed as reduction in cell viability by visual analysis to EC50 for antiviral activity against Oropouche virus infected in African green monkey Vero E6 cells assessed as reduction in viral replication by visual analysis. Format: toxicity, cell-based, Vero C1008. The conditions noted are these: read-out: Ratio CC50/EC50.

The subject of data set [28] is Orthohantavirus maporalense. Kind of data set: Antiviral activity against Maporal virus infected in African green monkey Vero E6 cells assessed as reduction in viral yield measured for 3 days. Format: functional. The settings on record: Vero C1008, 72 h, time 3 day.
Data set [29] is described as follows: Cytotoxicity against African green monkey Vero 76 cells infected with La Crosse virus assessed as reduction in cell viability by visual analysis. The conditions noted are these: chlorocebus sabaeus. In kind it is toxicity, cell-based.
The subject of data set [30] is Tacaribe virus. Kind of data set: Antiviral activity against Tacaribe virus infected in African green monkey Vero cells assessed as inhibition of viral replication by neutral red dye based analysis. The settings on record: Mammarenavirus tacaribeense. Format: functional, organism-based.
The nature of data set [31]: Cytotoxicity against dog MDCK cells infected with Influenza A virus H3N2 assessed as reduction in cell viability by neutral red dye based analysis. In kind it is toxicity, Canis lupus familiaris.
Data set [32] can be described thus: Cytotoxicity against African green monkey Vero 76 cells infected with Punta Toro virus assessed as reduction in cell viability by neutral red dye based analysis. Format: toxicity. The conditions noted are these: chlorocebus sabaeus.
Data set [33] can be described thus: Selectivity index, ratio of CC50 for cytotoxicity against African green monkey Vero 76 cells infected with Rift Valley fever virus assessed as reduction in cell viability to EC90 for antiviral activity against Rift Valley fever virus infected in African green monkey Vero 76 cells assessed as reduction in viral yield. Format: toxicity, cell-based.
Data set [34] in a line: Selectivity index, ratio of CC50 for cytotoxicity against African green monkey Vero E6 cells infected with Lymphocytic choriomeningitis virus assessed as reduction in cell viability to EC90 for antiviral activity against Lymphocytic choriomeningitis virus infected in African green monkey Vero E6 cells assessed as reduction in viral yield. In kind it is toxicity, cell-based, Vero C1008.

Data set [35] can be described thus: Cytotoxicity against African green monkey Vero E6 cells infected with Oropouche virus assessed as reduction in cell viability by neutral red dye based analysis. The settings on record: chlorocebus sabaeus. Format: toxicity, Vero C1008.
A short description of data set [36]: Cytotoxicity against African green monkey Vero cells infected with Pichinde virus assessed as reduction in cell viability by neutral red dye based analysis. The settings on record: chlorocebus sabaeus. In kind it is toxicity.

For `Nc1ncnc2c([C@@H]3N[C@H](CO)[C@@H](O)[C@H]3O)c[nH]c12` [GALIDESIVIR], the selectivity ratio is more than 6.7 in data set [1] and more than 24 in data set [2]. The EC50 is 4.2 µM in data set [3] and 1 µM in data set [4].

Turning to `Nc1ncnn2c([C@@H]3N[C@H](CO)[C@@H](O)[C@H]3O)ccc12`, the EC90 is 0.15 µM in [5], 0.3 µM in data set [17], 0.13 µM in [22] and 0.86 µM in data set [28]. Further, the EC50 in data set [6] was 0.42 µM; in data set [9] it was 0.37 µM; in data set [10], less than 0.1 µM; in data set [16], 0.28 µM; in data set [25] it was 0.31 µM; in data set [30] it was 0.33 µM. In addition, the CC50 in data set [7] was determined as 12 µM; in data set [8] it was 9.8 µM; in data set [11] it was 30 µM; in data set [13], 24 µM; in data set [14], 8.6 µM; in data set [15] it was 24 µM. In addition, the CC50 came out at 11 µM in data set [19]; 13 µM in [20]; 13 µM in data set [24]; 24 µM in [29]; 10 µM in [31]; 10 µM in [32]. In addition, the 50% cytotoxic concentration (CC50) in data set [35] amounted to 15 µM; in [36] it was 8.4 µM. Besides, the selectivity ratio in data set [12] is 75; in data set [18] it was 240; in data set [21], 97; in data set [23], 22; in data set [26], 15; in data set [27] it was 62. Also, the selectivity ratio in [33] was 78; in data set [34], 80.
